Here are results for six compounds from ChEMBL document CHEMBL4814078, “Novel CFTR Modulators for Treating Cystic Fibrosis” (ACS Med Chem Lett, 2021).

The target of this assay is Cystic fibrosis transmembrane conductance regulator (Homo sapiens, UniProt P13569). The experiment in a line: Potentiation of CFTR in primary human epithelial enteroid cells assessed as chloride transport in presence of forskolin by measuring membrane potential incubated for 18 to 24 hrs by FLIPR Tetra based dye assay. It is filed as tissue-based, Epithelial cell.
Chain of Cystic fibrosis transmembrane conductance regulator (P13569 whole entry): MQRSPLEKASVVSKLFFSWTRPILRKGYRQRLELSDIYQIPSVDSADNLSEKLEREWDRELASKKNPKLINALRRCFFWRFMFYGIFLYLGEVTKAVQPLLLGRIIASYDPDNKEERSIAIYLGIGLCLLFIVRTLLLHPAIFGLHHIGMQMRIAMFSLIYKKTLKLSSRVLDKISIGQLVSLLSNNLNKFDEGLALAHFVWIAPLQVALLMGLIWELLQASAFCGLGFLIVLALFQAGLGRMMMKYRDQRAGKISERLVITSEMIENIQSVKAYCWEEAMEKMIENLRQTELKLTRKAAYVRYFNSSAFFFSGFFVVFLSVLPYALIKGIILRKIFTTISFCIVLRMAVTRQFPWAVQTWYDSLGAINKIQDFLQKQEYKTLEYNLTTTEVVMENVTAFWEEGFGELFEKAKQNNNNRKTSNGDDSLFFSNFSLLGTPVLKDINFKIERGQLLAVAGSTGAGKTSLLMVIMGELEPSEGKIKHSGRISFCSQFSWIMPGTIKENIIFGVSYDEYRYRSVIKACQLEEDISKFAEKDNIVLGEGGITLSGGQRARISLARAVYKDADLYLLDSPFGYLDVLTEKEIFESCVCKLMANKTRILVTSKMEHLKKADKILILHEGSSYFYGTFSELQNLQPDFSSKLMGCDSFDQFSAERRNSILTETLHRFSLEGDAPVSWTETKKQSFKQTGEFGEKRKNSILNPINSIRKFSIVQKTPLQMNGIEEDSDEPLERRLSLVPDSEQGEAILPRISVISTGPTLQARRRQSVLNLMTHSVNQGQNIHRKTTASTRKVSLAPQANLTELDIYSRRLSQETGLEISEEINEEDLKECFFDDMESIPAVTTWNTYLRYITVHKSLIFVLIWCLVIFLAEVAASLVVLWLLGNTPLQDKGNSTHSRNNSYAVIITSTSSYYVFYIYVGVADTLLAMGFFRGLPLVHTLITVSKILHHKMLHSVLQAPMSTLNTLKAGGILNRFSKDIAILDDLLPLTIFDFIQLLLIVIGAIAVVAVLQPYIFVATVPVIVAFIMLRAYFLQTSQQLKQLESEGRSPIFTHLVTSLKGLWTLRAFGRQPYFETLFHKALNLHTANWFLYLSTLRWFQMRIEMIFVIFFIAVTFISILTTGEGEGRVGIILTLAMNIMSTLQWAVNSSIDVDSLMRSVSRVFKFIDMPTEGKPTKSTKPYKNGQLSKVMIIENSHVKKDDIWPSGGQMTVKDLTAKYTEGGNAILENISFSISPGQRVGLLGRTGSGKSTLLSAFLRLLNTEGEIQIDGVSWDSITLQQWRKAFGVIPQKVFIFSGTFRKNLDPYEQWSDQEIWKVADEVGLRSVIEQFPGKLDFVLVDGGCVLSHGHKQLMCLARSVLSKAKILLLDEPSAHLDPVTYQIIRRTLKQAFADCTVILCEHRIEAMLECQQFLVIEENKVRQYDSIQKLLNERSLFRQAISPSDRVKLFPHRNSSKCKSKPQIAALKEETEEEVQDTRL
With `CC1(C)C[C@@H]2CCCNc3cccc(n3)S(=O)(=O)NC(=O)c3ccc(-n4ccc(OC[Si](C)(C)C)n4)nc3N1C2`, the concentration giving a half-maximal response (EC50) is < 1 µM.

With `CC1(C)C[C@@H]2CCCNc3cccc(n3)S(=O)(=O)NC(=O)c3ccc(-n4ccc(OCCC[Si](C)(C)C)n4)nc3N1C2`, the EC50 was < 1 µM. The value for `CC(C)(C)CC[Si](C)(C)c1ccn(-c2ccc3c(n2)N2C[C@@H](CCCNc4cccc(n4)S(=O)(=O)NC3=O)CC2(C)C)n1` was < 1 µM; that for `CC1(C)C[C@@H]2CCCNc3cccc(n3)S(=O)(=O)NC(=O)c3ccc(-n4ccc(OCC[Si](C)(C)C)n4)nc3N1C2` was < 1 µM.

`CC1(C)C[C@@H]2CCCNc3cccc(n3)S(=O)(=O)NC(=O)c3ccc(-n4ccc(OC[Si](C)(C)C5(C(F)(F)F)CC5)n4)nc3N1C2`: the concentration giving a half-maximal response (EC50) is < 1 µM. Consider `CC1(C)C[C@@H]2CCCNc3cccc(n3)S(=O)(=O)NC(=O)c3ccc(-n4ccc(OCCC5([Si](C)(C)C)CC5)n4)nc3N1C2`, for which the half-maximal effective concentration (EC50) was < 1 µM.

The EC50 is the concentration at which the effect is half-maximal.
